Measurements taken from PMC5342227, “Polymer micelle formulation for the proteasome inhibitor drug carfilzomib: Anticancer efficacy and pharmacokinetic studies in mice” (PLoS ONE, 2017).

Key:
[1] = set-up: method as in 2 sources, one per row (each row's own in cited_ref): ref 14 = [14]; PMID 23386784; doi:10.2147/BTT.S24580; 14 Nooka A , Gleason C , Casbourne D , Lonial S . Relapsed and refractory lymphoid neoplasms and multiple myeloma with a focus on carfilzomib . Biologics 2013; 7 : 13 – 32 . 10.2147/BTT.S24580 233867 ||| ref 6 = [6]; PMID 21752943; doi:10.1124/dmd.111.039164; 6 Yang J , Wang Z , Fang Y , Jiang J , Zhao F , Wong H , et al Pharmacokinetics, pharmacodynamics, metabolism, distribution, and excretion of carfilzomib in rats . Drug Metab Dispos . 2011; 39 : 1873; conditions: cited from earlier work
[2] = target: T1, proteasome catalytic subunit β5 (Homo sapiens, UniProt P20618+P28074); test: Immunoblot mobility shift of covalently modified β5 in tumor lysates; set-up: species or system human (H460 xenograft in mice); conditions: positive control: tumor lysates incubated with 50 nM CFZ for 2 h in vitro
T1 construct: tumor tissue lysates (10 μg of total protein) were resolved using 12.5% SDS-PAGE; from tissue; host or cells: excised H460 xenograft tumour tissue from NOD/SCID mice
Protocol: Briefly, tumor tissue lysates (10 μg of total protein) were resolved using 12.5% SDS-PAGE and transferred onto a PVDF membrane (Bio-Rad Laboratories). Membranes were blocked in 5% milk in Tris-buffered saline containing 0.05% Tween-20 (TBST) and probed with the following antibodies; for β5 (dilution 1:1000, Abcam) and β-actin (dilution 1:1000, Cell Signaling). Membranes were washed with TBST and probed with the corresponding secondary antibodies conjugated with horseradish peroxidase. Bound antibodies were visualized using an enhanced chemiluminescence substrate (Thermo Fisher Scientific).

## Carfilzomib [CFZ]
[1]; background statement, no reference given
  solubility in aqueous media: practically insoluble
[1]; following intravenous injection, peptide backbone cleavage and epoxide hydrolysis
  share of CFZ eliminated from systemic circulation within 30 min: > 95%
[1]; mice
  maximum tolerated dose: 5 mg/kg
[2]
  β5 band mobility compared with negative control (DMSO): showed a mobility shift
